Data: US12398120B2, “Substituted hydantoinamides as ADAMTS7 antagonists” (BAYER AKTIENGESELLSCHAFT, priority 2019, dated 2025)

molecular target: ADAMTS4 (Homo sapiens (Human), UniProt O75173); test: Selectivity assay for ADAMTS-7 modulators: ADAMTS4 (FRET substrate); type: biochemical; details: ADAMTS4 (R&D 4307-AD) 50 nM, substrate Dabcyl-EEVKAKVQPY-Glu(Edans)-NH2 1 μM, 120 min, 32° C.
Summary of the method: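 Activity read as rising fluorescence after a FRET substrate is cleaved by human ADAMTS4, with reactions started by substrate addition to wells holding compound or DMSO. Percent inhibition plotted against concentration gave IC50.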

Chain of ADAMTS4 (O75173 213-685): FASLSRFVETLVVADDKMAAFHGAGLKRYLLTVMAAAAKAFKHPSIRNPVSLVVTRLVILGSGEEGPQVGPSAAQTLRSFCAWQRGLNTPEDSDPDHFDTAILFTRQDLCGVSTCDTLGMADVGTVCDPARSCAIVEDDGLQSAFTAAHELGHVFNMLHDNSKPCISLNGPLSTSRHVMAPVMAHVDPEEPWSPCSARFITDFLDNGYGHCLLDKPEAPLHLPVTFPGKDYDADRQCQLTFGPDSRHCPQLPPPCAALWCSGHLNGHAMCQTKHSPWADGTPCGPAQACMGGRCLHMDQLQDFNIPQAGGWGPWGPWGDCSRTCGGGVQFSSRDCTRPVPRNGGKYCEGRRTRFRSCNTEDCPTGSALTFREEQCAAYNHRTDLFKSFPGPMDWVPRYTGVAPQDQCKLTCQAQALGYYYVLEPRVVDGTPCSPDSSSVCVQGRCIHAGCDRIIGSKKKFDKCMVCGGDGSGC

| IC50 | SMILES |
| --- | --- |
| 25 µM | O=C1NC(=O)[C@](CNC(=O)c2cc(F)c(F)cc2-c2ccc(C3CC3(F)F)cc2)(C2CC2)N1 (stereo partly drawn) [Example 144, N-{[(4R)-4-Cyclopropyl-2,5-Dioxoimidazolidin-4-Yl]Methyl}-4′-(2,2-Difluorocyclopropyl)-4,5-Difluoro[1,1′-Biphenyl]-2-Carboxamide] |
| 2.8 µM | Cc1ccc(C(=O)NC[C@@]2(C3CC3)NC(=O)NC2=O)c(-c2ccc(C(F)(F)F)cc2)c1C [Example 145, N-{[(4R)-4-Cyclopropyl-2,5-Dioxoimidazolidin-4-Yl]Methyl}-5,6-Dimethyl-4′-(Trifluoromethyl)[1,1′-Biphenyl]-2-Carboxamide] |
| 1.84 µM | Cn1ccnc1C1(CNC(=O)c2ccccc2-c2ccc(C(F)(F)F)cc2)NC(=O)NC1=O (stereo not drawn) [Example 148, Ent-N-{[4-(1-Methyl-1H-Imidazol-2-Yl)-2,5-Dioxoimidazolidin-4-Yl]Methyl}-4′-(Trifluoromethyl)[Biphenyl]-2-Carboxamide] |
| 3.05 µM | Cn1ccnc1C1(CNC(=O)c2ccccc2-c2ccc(C(F)(F)F)nc2)NC(=O)NC1=O (stereo not drawn) [Example 158, Ent-N-{[4-(1-Methyl-1H-Imidazol-2-Yl)-2,5-Dioxoimidazolidin-4-Yl]Methyl}-2-[6-(Trifluoromethyl)Pyridin-3-Yl]Benzamide] |
| 7.9 µM | Cc1scnc1C1(CNC(=O)c2ccccc2-c2ccc(C(F)(F)F)nc2)NC(=O)NC1=O (stereo not drawn) [Example 173, Ent-N-{[4-(5-Methyl-1,3-Thiazol-4-Yl)-2,5-Dioxoimidazolidin-4-Yl]Methyl}-2-[6-(Trifluoromethyl)Pyridin-3-Yl]Benzamide] |
| 16.5 µM | Cn1nccc1C1(CNC(=O)c2ccccc2-c2ccc(C(F)(F)F)cc2)NC(=O)NC1=O (stereo not drawn) [Example 185, Ent-N-{[4-(1-Methyl-1H-Pyrazol-5-Yl)-2,5-Dioxoimidazolidin-4-Yl]Methyl}-4′-(Trifluoromethyl)[Biphenyl]-2-Carboxamide] |
| 12 µM | Cn1nccc1C1(CNC(=O)c2ccccc2-c2ccc(C(F)(F)F)nc2)NC(=O)NC1=O (stereo not drawn) [Example 190, Ent-N-{[4-(1-Methyl-1H-Pyrazol-5-Yl)-2,5-Dioxoimidazolidin-4-Yl]Methyl}-2-[6-(Trifluoromethyl)Pyridin-3-Yl]Benzamide] |
| 8.9 µM | Cn1nccc1C1(CNC(=O)c2ccccc2-c2ccc(S(C)(=O)=O)cc2)NC(=O)NC1=O (stereo not drawn) [Example 194, Ent-N-{[4-(1-Methyl-1H-Pyrazol-5-Yl)-2,5-Dioxoimidazolidin-4-Yl]Methyl}-4′-(Methylsulfonyl)[Biphenyl]-2-Carboxamide] |
| 13 µM | O=C1NC(=O)C(CNC(=O)c2ccccc2-c2ccc(C(F)(F)F)cc2)(c2cscn2)N1 (stereo not drawn) [Example 197, Ent-N-{[2,5-Dioxo-4-(1,3-Thiazol-4-Yl)Imidazolidin-4-Yl]Methyl}-4′-(Trifluoromethyl)[Biphenyl]-2-Carboxamide] |
| 16 µM | O=C1NC(=O)C(CNC(=O)c2ccc(F)cc2-c2ccc(C(F)(F)F)cc2)(c2cscn2)N1 (stereo not drawn) [Example 199, Ent-N-{[2,5-Dioxo-4-(1,3-Thiazol-4-Yl)Imidazolidin-4-Yl]Methyl}-5-Fluoro-4′-(Trifluoromethyl)[Biphenyl]-2-Carboxamide] |
| 8.1 µM | Cc1ccc(-c2ccccc2C(=O)NCC2(c3nccs3)NC(=O)NC2=O)cc1 (stereo not drawn) [Example 201, Ent-N-{[2,5-Dioxo-4-(1,3-Thiazol-2-Yl)Imidazolidin-4-Yl]Methyl}-4′-Methyl[Biphenyl]-2-Carboxamide] |
| 46 µM | Cc1ccc(C(=O)NCC2(C(C)C)NC(=O)NC2=O)c(-c2ccc(C(F)(F)F)cc2)c1 (stereo not drawn) [Example 203, Ent-N-[(4-Isopropyl-2,5-Dioxoimidazolidin-4-Yl)Methyl]-5-Methyl-4′-(Trifluoromethyl)[Biphenyl]-2-Carboxamide] |

| SMILES | IC50 |
| --- | --- |
| Cc1ccc(-c2ccccc2C(=O)NCC2(C(C)C)NC(=O)NC2=O)cc1 (stereo not drawn) [Example 205, Ent-N-[(4-Isopropyl-2,5-Dioxoimidazolidin-4-Yl)Methyl]-4′-Methyl[Biphenyl]-2-Carboxamide] | 12 µM |
